Among the data in patent US11370773B1, “Inhibiting human integrin (alpha-4) (beta-7)” (Morphic Therapeutic, Inc., priority 2019, dated 2022) are IC50 values, retold here.

In the experiment the target is T1, α4β7 (Homo sapiens, UniProt P13612+P26010).
T1 construct: α4β7 expressing cells (RPMI-8866); endogenous in cells; host or cells: RPMI 8866
T1 sequence (P13612 34-1032): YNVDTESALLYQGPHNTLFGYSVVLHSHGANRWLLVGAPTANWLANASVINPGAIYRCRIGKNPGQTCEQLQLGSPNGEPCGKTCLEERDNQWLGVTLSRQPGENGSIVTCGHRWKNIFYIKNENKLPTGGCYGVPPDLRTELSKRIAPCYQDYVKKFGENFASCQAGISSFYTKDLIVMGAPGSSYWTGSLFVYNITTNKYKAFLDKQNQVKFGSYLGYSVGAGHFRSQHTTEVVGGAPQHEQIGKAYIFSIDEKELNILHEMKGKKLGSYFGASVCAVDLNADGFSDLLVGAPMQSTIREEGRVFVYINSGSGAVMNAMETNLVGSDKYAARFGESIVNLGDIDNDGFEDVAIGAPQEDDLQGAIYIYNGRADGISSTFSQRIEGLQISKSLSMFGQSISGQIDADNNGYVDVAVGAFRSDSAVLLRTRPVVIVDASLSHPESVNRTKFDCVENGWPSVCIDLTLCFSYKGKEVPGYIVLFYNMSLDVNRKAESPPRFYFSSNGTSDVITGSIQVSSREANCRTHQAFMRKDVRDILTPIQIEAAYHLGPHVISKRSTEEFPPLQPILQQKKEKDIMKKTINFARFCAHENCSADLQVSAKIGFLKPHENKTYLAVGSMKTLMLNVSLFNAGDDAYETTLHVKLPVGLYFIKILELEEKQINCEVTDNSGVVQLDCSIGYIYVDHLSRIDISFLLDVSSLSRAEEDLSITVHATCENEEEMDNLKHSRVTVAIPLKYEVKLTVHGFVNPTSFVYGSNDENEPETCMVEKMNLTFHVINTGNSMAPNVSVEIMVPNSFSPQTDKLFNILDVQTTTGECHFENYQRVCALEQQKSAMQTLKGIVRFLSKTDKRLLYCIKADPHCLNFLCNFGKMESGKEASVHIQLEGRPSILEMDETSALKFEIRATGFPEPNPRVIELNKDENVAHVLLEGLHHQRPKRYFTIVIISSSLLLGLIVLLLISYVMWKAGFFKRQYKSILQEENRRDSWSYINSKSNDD
T1 sequence (P26010 20-798): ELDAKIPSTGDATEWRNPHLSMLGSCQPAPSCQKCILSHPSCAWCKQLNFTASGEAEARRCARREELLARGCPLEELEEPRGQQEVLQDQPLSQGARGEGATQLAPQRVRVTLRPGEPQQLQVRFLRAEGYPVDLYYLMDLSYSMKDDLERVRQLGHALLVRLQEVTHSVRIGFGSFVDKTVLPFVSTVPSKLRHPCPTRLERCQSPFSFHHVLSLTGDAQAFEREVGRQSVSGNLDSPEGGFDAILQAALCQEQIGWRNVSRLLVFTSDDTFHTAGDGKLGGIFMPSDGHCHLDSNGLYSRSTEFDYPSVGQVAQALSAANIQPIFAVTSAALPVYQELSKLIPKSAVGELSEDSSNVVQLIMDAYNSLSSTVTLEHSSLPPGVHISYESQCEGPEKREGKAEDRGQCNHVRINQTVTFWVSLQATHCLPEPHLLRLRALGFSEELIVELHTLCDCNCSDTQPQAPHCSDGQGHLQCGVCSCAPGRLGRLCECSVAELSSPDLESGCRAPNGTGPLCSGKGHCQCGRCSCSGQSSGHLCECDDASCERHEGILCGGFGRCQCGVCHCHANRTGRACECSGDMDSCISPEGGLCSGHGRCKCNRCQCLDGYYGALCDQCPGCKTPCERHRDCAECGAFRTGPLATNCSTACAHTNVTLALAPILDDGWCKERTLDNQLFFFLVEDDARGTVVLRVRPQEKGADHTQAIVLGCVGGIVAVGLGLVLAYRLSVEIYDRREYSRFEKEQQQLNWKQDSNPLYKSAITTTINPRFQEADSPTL
Put plainly: Cell-based ligand binding assay (LBA), RPMI 8866 cells in competition with soluble MAdCAM-1-Fc. Particulars: MAdCAM-1-Fc Dylight 650, flow cytometry, read-out: LB Assay (Example 6) IC50. As to the method: Three in vitro assays were used to examine the α4β7 mechanistic process used by cells: 1) ligand:receptor affinity, 2) the avidity of those interactions on a cell's surface, and 3) how those interactions fare under an imposing force. In Example 5, a Fluorescence Polarization (FP) assay is used to measure compound activity through binding competition with the fluorescein-labeled peptide. In Example 6, the potency of compounds against α4β7 is measured in the cell-based ligand binding assay (LBA), using RPMI 8866 cells incubated with the compound samples in competition with soluble MAdCAM-1 ligand. In Example 7, activity of compounds is evaluated in a cell adhesion assay that mechanistically tests what occurs in vivo when trafficking cells utilize α4β7 to adhere to MAdCAM-1 expressing HEVs of the gut during the extravasation process. In the cell adhesion assay of Example 7, a MAdCAM1-(Fc) is coated on plastic, and α4β7 expressing cells (RPMI-8866) are allowed to adhere to the coated surface in the presence of the test compounds. Next, the force of washing with buffer is applied to cells thereby testing the strength of that adhesion. Unattached cells are removed and the remaining adherent cells are quantified.
5 ul of 33 nM MAdCAM-1-Fc fluorescently labeled with Dylight 650 in 50 mM HEPES pH 7.3, 150 mM sodium chloride, and 1% bovine serum albumin was added to the cells. The samples were incubated for 45 minutes at room temperature, fixed with 0.8% formaldehyde for 30 minutes at room temperature, and washed with 50 mM Tris pH 7.5, 150 mM NaCl, 1 mM EDTA, and 1% bovine serum albumin. Fluorescence intensity for each cell was measured via flow cytometry. Dead cells were excluded from further analysis based on staining with the 780 fixable viability dye. Median fluorescence intensity for Dylight 650 was determined for each sample and concentration-response curves were analyzed for IC50 values using 4-parameter non-linear regression analysis.
Take `Cc1cc(-c2c(C)ccc(F)c2C)cc([C@H](CC(=O)O)NC(=O)C(CC(C)C)n2cc(CCN3CCC3)c(C(F)(F)F)cc2=O)c1F` (single isomer, unassigned) [AF-P2]: the 50% inhibitory concentration (IC50) is not above 10 nM.
The value for `Cc1ccn([C@@H](NC(C)C)C(=O)N[C@@H](CC(=O)O)c2cncc(-c3c(C)cccc3C)c2)c(=O)c1` [Example C-7, reference compound] was not above 10 nM; that for `Cc1ccn([C@@H](CC(C)C)C(=O)N[C@H](CC(=O)O)c2cncc(-c3c(C)cccc3C)c2)c(=O)c1` [Example C-28, reference compound] was 10 to 500 nM.
Consider `Cc1ccc(F)c(C)c1-c1cc(C2CC2)c(F)c([C@H](CC(=O)O)NC(=O)[C@H](CC(C)C)n2cc(CCN3CCC3)c(C(F)(F)F)cc2=O)c1F` [HH-P2, (3S)-3-(2-(5-(2-(azetidin-1-yl)ethyl)-2-oxo-4-(trifluoromethyl)pyridin-1(2H)-yl)-4-methylpentanamido)-3-(5-cyclopropyl-2,3′,4-trifluoro-2′,6′-dimethyl-[1,1′-biphenyl]-3-yl)propanoic Acid], for which the IC50 is not above 10 nM.
`Cc1cc(C)c(-c2cc(C3CC3)c(F)c([C@H](CC(=O)O)NC(=O)[C@H](CC(C)C)n3cc(CCN4CCC4)c(C(F)(F)F)cc3=O)c2F)c(C)c1` [HM-P2, (3S)-3-(2-(5-(2-(azetidin-1-yl)ethyl)-2-oxo-4-(trifluoromethyl)pyridin-1(2H)-yl)-4-methylpentanamido)-3-(5-cyclopropyl-2,4-difluoro-2′,4′,6′-trimethylbiphenyl-3-yl)propanoic Acid]: the IC50 is not above 10 nM.
For the compound `Cc1cc(C2CC2)cc(C)c1-c1cc(C(F)(F)F)c(F)c([C@H](CC(=O)O)NC(=O)[C@H](CC(C)C)n2cc(CCCN(C)C)c(C(F)(F)F)cc2=O)c1F` [HU-P2, (3S)-3-(4′-cyclopropyl-2,4-difluoro-2′,6′-dimethyl-5-(trifluoromethyl)-[1,1′-biphenyl]-3-yl)-3-(2-(5-(3-(dimethylamino)propyl)-2-oxo-4-(trifluoromethyl)pyridin-1(2H)-yl)-4-methylpentanamido)propanoic Acid], the IC50 fell in the range of 10 to 500 nM.
With `Cc1cc(F)cc(C)c1-c1cc(C(F)(F)F)c(F)c([C@H](CC(=O)O)NC(=O)[C@H](CC(C)C)n2cc(CCCN(C)C)c(C(F)(F)F)cc2=O)c1F` [HW-P2, (3S)-3-(2-(5-(3-(dimethylamino)propyl)-2-oxo-4-(trifluoromethyl)pyridin-1(2H)-yl)-4-methylpentanamido)-3-(2,4,4′-trifluoro-2′,6′-dimethyl-5-(trifluoromethyl)-[1,1′-biphenyl]-3-yl)propanoic Acid], the IC50 is not above 10 nM.
Take `Cc1cc(C)c(-c2cc(C(F)(F)F)c(F)c([C@H](CC(=O)O)NC(=O)[C@H](CC(C)C)n3cc(CCCN(C)C)c(C(F)(F)F)cc3=O)c2F)c(C)c1` [HZ-P2, (3S)-3-(2,4-difluoro-2′,4′,6′-trimethyl-5-(trifluoromethyl)biphenyl-3-yl)-3-(2-(5-(3-(dimethylamino)propyl)-2-oxo-4-(trifluoromethyl)pyridin-1(2H)-yl)-4-methylpentanamido)propanoic Acid]: the IC50 was in the range of 10 to 500 nM.
Consider `Cc1cc(-c2c(C)cc(F)cc2C)cc([C@H](CC(=O)O)NC(=O)[C@H](CC(C)C)n2cc(CCN(C)C)cc(C(F)F)c2=O)c1F` [I-P2, (3S)-3-(4,4′-difluoro-2′,5,6′-trimethyl-[1,1′-biphenyl]-3-yl)-3-(2-(3-(difluoromethyl)-5-(2-(dimethylamino)ethyl)-2-oxopyridin-1(2H)-yl)-4-methylpentanamido)propanoic Acid], for which the IC50 was not above 10 nM.
Take `Cc1cc(C)c(-c2cc(C(F)(F)F)c(F)c([C@H](CC(=O)O)NC(=O)[C@H](CC(C)C)n3cc(CCN(C)C)c(C(F)(F)F)cc3=O)c2F)c(C)c1` [IF-P2, (3S)-3-(2,4-difluoro-2′,4′,6′-trimethyl-5-(trifluoromethyl)-[1,1′-biphenyl]-3-yl)-3-(2-(5-(2-(dimethylamino)ethyl)-2-oxo-4-(trifluoromethyl)pyridin-1(2H)-yl)-4-methylpentanamido)propanoic Acid]: the IC50 is 10 to 500 nM.
The value for `Cc1cc(C)c(-c2cc(C(F)(F)F)c(F)c([C@H](CC(=O)O)NC(=O)[C@H](CC(C)C)n3cc(CCN4CCC4)c(C(F)(F)F)cc3=O)c2F)c(C)c1` [IG-P2, (3S)-3-(2-(5-(2-(azetidin-1-yl)ethyl)-2-oxo-4-(trifluoromethyl)pyridin-1(2H)-yl)-4-methylpentanamido)-3-(2,4-difluoro-2′,4′,6′-trimethyl-5-(trifluoromethyl)biphenyl-3-yl)propanoic Acid] was 10 to 500 nM.
For `Cc1cc(C)c(-c2cc(C)c(F)c([C@H](CC(=O)O)NC(=O)[C@H](CC(C)C)n3cc(CCCN(C)C)c(C(F)(F)F)cc3=O)c2F)c(C)c1F` [IW-P2, (3S)-3-(2-(5-(3-(dimethylamino)propyl)-2-oxo-4-(trifluoromethyl)pyridin-1(2H)-yl)-4-methylpentanamido)-3-(2,3′,4-trifluoro-2′,4′,5,6′-tetramethyl-[1,1′-biphenyl]-3-yl)propanoic Acid] the value was 10 to 500 nM; for `Cc1cc(F)c(C)c(C)c1-c1cc(C(F)(F)F)c(F)c([C@H](CC(=O)O)NC(=O)[C@H](CC(C)C)n2cc(CCN3CCC3)c(C(F)(F)F)cc2=O)c1F` [KT-P2, (3S)-3-(2-(5-(2-(azetidin-1-yl)ethyl)-2-oxo-4-(trifluoromethyl)pyridin-1(2H)-yl)-4-methylpentanamido)-3-(2,4,4′-trifluoro-2′,3′,6′-trimethyl-5-(trifluoromethyl)-[1,1′-biphenyl]-3-yl)propanoic Acid], 10 to 500 nM.
